{
  "source": "patent US6479628B1",
  "about": "“Methods and materials relating to IMPDH and GMP production” (Arch Development Corporation, priority 1988, dated 2002)",
  "key": {"parental V79 cells": {"tested_on": "parental V79 cells", "experiment": "Resistance of parental cells to MPA cytotoxicity", "assay_type": "cell-based, Chinese hamster"}, "[1]": {"target": "purified Chinese hamster IMPDH (Cricetulus griseus, UniProt P12269)", "sequence (P12269 whole entry)": "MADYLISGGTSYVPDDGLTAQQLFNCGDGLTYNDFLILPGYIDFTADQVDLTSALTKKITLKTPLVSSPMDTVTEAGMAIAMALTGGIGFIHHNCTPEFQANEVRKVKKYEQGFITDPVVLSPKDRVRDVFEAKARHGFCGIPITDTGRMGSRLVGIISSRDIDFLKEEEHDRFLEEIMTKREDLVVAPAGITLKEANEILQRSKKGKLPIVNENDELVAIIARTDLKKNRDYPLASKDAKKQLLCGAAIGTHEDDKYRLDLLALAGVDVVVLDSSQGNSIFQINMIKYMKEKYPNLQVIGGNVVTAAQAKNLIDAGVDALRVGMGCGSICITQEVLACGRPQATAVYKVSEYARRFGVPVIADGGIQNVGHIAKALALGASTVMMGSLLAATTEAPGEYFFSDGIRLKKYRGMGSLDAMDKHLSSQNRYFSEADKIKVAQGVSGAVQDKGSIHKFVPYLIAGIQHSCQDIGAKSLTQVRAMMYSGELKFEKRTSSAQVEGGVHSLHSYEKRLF", "experiment": "Kinetic studies of purified IMPDH (IMP-dependent NAD reduction, absorbance at 340 nm)", "quoted_text": "Kinetic studies were carried out by varying the substrate conditions. In all cases, linear reciprocal plots were defined by simple regression analysis of the data."}, "[2]": {"tested_on": "VM1 through VM4 variants of V79 cells", "experiment": "Resistance of stepwise-selected cell variants to MPA cytotoxicity", "assay_type": "cell-based, Chinese hamster", "protocol": "According to the present invention, the resistance level of one of these cell variants was further increased by a stepwise selection in the presence of increasing concentrations of MPA. After adaptation to the higher concentration of MPA, the cells were seeded in medium containing an increased concentration of MPA at 200 cells per 60-mm petri dish, and MPA-resistant colonies were isolated 8 days later."}, "[3]": {"tested_on": "IMP1 cell clone (transfected V15 hamster cells)", "conditions": "mycophenolic acid 2 μg/mL in culture medium", "quoted_text": "After introduction of the construct into the hamster cells, mycophenolic acid (2 μg/mL) was added to the culture medium to select for those cells that had integrated the construct into their genetic material. Those cells that have integrated the construct into their genetic material produce the IMPDH enzyme and are therefore resistant to the cytotoxic effects of mycophenolic acid.\n[Dulbecco's modified MEM containing 5% fetal bovine serum, aminopterin (2 μg/mL), and mycophenolic acid (25 μg/mL), and supplemented with hypoxanthine (15 μg/mL), thymidine (10 μg/mL), and xanthine (250 μg/mL)]. The ability of the cells to grow in the selective medium is attributable to the production of the E. coli gpt enzyme, which catalyzes the production of xanthine monophosphate from the reaction of xanthine and phosphoribosyl pyroposphate. Presence of the enzyme compensates for the purine de novo synthetic block imposed by the presence of aminopterin and MPA."}, "V79 cells": {"tested_on": "V79 cells", "experiment": "Growth of control and MNNG-treated V79 cells incubated with MPA", "assay_type": "cell-based, Chinese hamster", "conditions": "untreated 5.0±0.3"}, "E. coli IMPDH enzyme": {"target": "E. coli IMPDH enzyme (Escherichia coli, UniProt P0ADG7)", "sequence (P0ADG7 whole entry)": "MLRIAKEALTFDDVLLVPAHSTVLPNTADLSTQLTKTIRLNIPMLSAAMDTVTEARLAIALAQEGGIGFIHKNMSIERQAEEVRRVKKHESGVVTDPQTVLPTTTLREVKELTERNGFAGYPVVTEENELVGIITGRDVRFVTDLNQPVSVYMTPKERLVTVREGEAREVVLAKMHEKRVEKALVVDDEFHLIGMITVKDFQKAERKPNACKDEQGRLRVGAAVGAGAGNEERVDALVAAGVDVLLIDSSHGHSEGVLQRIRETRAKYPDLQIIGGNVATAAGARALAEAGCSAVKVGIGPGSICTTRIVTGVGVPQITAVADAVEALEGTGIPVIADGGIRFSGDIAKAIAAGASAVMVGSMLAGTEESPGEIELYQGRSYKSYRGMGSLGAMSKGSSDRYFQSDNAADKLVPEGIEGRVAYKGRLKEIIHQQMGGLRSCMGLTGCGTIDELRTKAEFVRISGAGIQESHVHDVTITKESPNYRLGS", "conditions": "unlike mammalian cell enzymes; cited from earlier work"}},
  "data": [
    {"smiles": "COc1c(C)c2c(c(O)c1C/C=C(\\C)CCC(=O)O)C(=O)OC2", "note": "[MPA, mycophenolic acid]", "values": [
      {"measurement": "MPA concentration to which cells are resistant", "setting": "parental V79 cells", "value": 0.1, "unit": "µg/mL"},
      {"measurement": "Ki", "setting": "[1]; sensitivity of Chinese hamster enzyme to MPA", "value": "nanomolar range"},
      {"measurement": "MPA concentration to which cells are resistant", "setting": "[2]; VM1 variant", "value": 5, "unit": "µg/mL"},
      {"measurement": "MPA concentration to which cells are resistant", "setting": "[2]; VM2 variant", "value": 10, "unit": "µg/mL"},
      {"measurement": "MPA concentration to which cells are resistant", "setting": "[2]; VM3 variant", "value": 25, "unit": "µg/mL"},
      {"measurement": "MPA concentration to which cells are resistant", "setting": "[2]; VM4 variant", "value": 50, "unit": "µg/mL"},
      {"measurement": "resistance of cell clone to cytotoxic effects", "setting": "[3]", "value": "resistant"},
      {"measurement": "cells per Petri dish after 5 days of growth, mean (±SD)", "setting": "V79 cells; MPA at 0.1 μg/mL", "value": "1.4±0.2 ×10^6 cells per Petri dish"},
      {"measurement": "cells per Petri dish after 5 days of growth, mean (±SD)", "setting": "V79 cells; MPA at 0.3 μg/mL", "value": "0.2±0.05 ×10^6 cells per Petri dish"},
      {"measurement": "sensitivity to the inhibitory effect", "setting": "E. coli IMPDH enzyme", "value": "insensitive"}
    ]},
    {"smiles": "NC(=O)c1ccc[n+]([C@@H]2O[C@H](COP(=O)([O-])OP(=O)(O)OC[C@H]3O[C@@H](n4cnc5c(N)ncnc54)[C@H](O)[C@@H]3O)[C@@H](O)[C@H]2O)c1", "note": "[NAD]", "values": [
      {"measurement": "Km", "setting": "[1]; substrate of Chinese hamster enzyme, linear reciprocal plots", "value": 29, "unit": "µM"}
    ]}
  ]
}
